Results reported in patent US4918056A, “2-substituted arabinopyranosyl nucleosides and nucleotides” (priority 1986, dated 1990).

Assays:
L1210/ara-C leukemia = test: Therapeutic activity in DBA/2N mice with ara-C resistant L1210 leukemia; settings: for Median survival: control 7; for Mean ± SD survival: control 7.1 + 0.1
Procedure: In conducting the evaluations, the activity was tested against intraperitoneal (i.p.) implanted leukemia in mice.
DBA/2N female mice (20 g) were implanted i.p. with 1×10^6 L1210 leukemia cells on day 0. Mice were weighed and inspected for tumor growth and survival daily. […] Dosages varied from 1 to 800 mg/kg/day (mkd).
Survival time was measured in days after tumor implantation. % ILS (increase in life span) was based on mean survival.
Testing was followed as described in the NCI protocol and evaluation by comparison of median survival time (ST) of the treated animals to that of the control animals by the percentage increase in % ILS.
Drug resistant L1210 leukemia cell sublines were obtained from the National Cancer Institute. […] Eight mice were used as controls and five mice for each drug dosage group. Drugs were administered i.p. once per day on days 1, 2, 3, 4 and 5.

Lewis lung carcinoma = test: Therapeutic activity in C57/B16 mice with s.c. Lewis lung carcinoma; format: in vivo, mouse (C57/B16 female); settings: for % ILS (increase in life span): based on median survival; for Median survival: control 22
Procedure: (§1) The therapeutic activity of 85024 was evaluated in C57/B16 female mice implanted s.c. with either Lewis lung carcinoma or M5076 sarcoma (Table 5).
(§2) C57/B16 female mice were implanted s.c. using a trochar on day 0 with a 50 mg piece of either Lewis lung carcinoma of M5076 sarcoma. Drugs were administered i.p. once daily on days 3, 4, 5, 6 and 7. Tumor size (two perpendicular diameters) was measured with calipers and volume was estimated algebraically. Survival was monitored daily for 60 days. % ILS (increase in life span) is based on median survival.

M5076 sarcoma = test: Therapeutic activity in C57/B16 mice with s.c. M5076 sarcoma; format: in vivo, mouse (C57/B16 female); settings: days 3-7; for % ILS (increase in life span): based on median survival; for Half Maximal Tumor Volume: control 32; for Median survival: control 37
Procedure: as §1, §2

L1210 leukemia cells = test: Reversal of L1210 growth inhibition by salvageable nucleosides; format: cell-based, mouse
Procedure: Reversal studies were conducted as follows: […], 85027 or 5-FdUr were added at various concentrations near their IC50 to cultures of L1210 leukemia cells, maintained in PRMI 1640 medium supplemented with 10% fetal calf serum and 16mM HEPES, pH 7.2 as described in Example 9. Nucleosides including thymidine (1×10^-5 M), uridine (1×10^-4 M), deoxyuridine ([…]), adenosine (1×10^-4 M), or guanosine (1×10^-5 M) were also added to identical drug (85024, 85027 or 5-FdUr) containing L1210 leukemia cultures. Cellular growth inhibition or its prevention by the addition of salvageable nucleosides was determined 48 hours later by counting cells using an electronic Coulter Counter.

COC1OC[C@@H](OC(C)=O)[C@@H](OC(C)=O)[C@]1(F)n1ccc(=O)[nH]c1=O (stereo partly drawn) [compound 85024, Methyl 3,4-di-0-acetyl-2-deoxy-2(R)-[1H,3H-2,4-dioxo-1-pyrimidinyl]-2-fluoro-α-D-arabinopyranoside [5a] and methyl 3,4-di-0-acetyl-2-deoxy-2(R)-[1H,3H-2,4-dioxo-1-pyrimidinyl]-2-fluoro-β-D-arabinopyranoside [6a]]
Survival Range (L1210/ara-C leukemia; 100 mkd × 5 i.p.): 8 to 9 days
% ILS (increase in life span) (L1210/ara-C leukemia; 100 mkd × 5 i.p., NS): 28%
Median survival (L1210/ara-C leukemia; 100 mkd × 5 i.p.): 9 days
Mean ± SD survival (L1210/ara-C leukemia; 100 mkd × 5 i.p.): 8.6 ± 0.2 days
Mean Animal Weight (L1210/ara-C leukemia; 200 mkd × 5 i.p.): 21.0 g
Survival Range (L1210/ara-C leukemia; 200 mkd × 5 i.p.): 8 to 9 days
% ILS (increase in life span) (L1210/ara-C leukemia; 200 mkd × 5 i.p., P <.01): 28%
Median survival (L1210/ara-C leukemia; 200 mkd × 5 i.p.): 9 days
Mean ± SD survival (L1210/ara-C leukemia; 200 mkd × 5 i.p.): 8.8 ± 0.2 days
Mean Animal Weight (L1210/ara-C leukemia; 500 mkd × 5 i.p.): 18.6 g
Survival Range (L1210/ara-C leukemia; 500 mkd × 5 i.p.): 10 to 11 days
% ILS (increase in life span) (L1210/ara-C leukemia; 500 mkd × 5 i.p., P <.01): 57%
Median survival (L1210/ara-C leukemia; 500 mkd × 5 i.p.): 11 days
Mean ± SD survival (L1210/ara-C leukemia; 500 mkd × 5 i.p.): 10.8 ± 0.2 days
cross resistance to ara-C and 5-FU (L1210/ara-C leukemia; summary of L1210/ara-C and L1210/5-FU tests): not cross resistant
effect on tumor size (Lewis lung carcinoma; 400 mg/kg/day i.p., days 3-7): statistically significant decrease in tumor size
increase of median day to reach half maximal tumor size (Lewis lung carcinoma; 400 mg/kg/day i.p., days 3-7, normalized for animal weight, from day 19 to 23): 4 days
Survival Range (Lewis lung carcinoma; 50 mkd × 5 i.p., days 3-7): 24 to 31 days
% ILS (increase in life span) (Lewis lung carcinoma; 50 mkd × 5 i.p., days 3-7): 22%
Half Maximal Tumor Volume (Lewis lung carcinoma; 50 mkd × 5 i.p., days 3-7, control 19, p < 0.05): 20.5 days
Median survival (Lewis lung carcinoma; 50 mkd × 5 i.p., days 3-7): 27 days
Survival Range (Lewis lung carcinoma; 200 mkd × 5 i.p., days 3-7): 17 to 32 days
% ILS (increase in life span) (Lewis lung carcinoma; 200 mkd × 5 i.p., days 3-7): 40%
Half Maximal Tumor Volume (Lewis lung carcinoma; 200 mkd × 5 i.p., days 3-7, control 19): 21 days
Median survival (Lewis lung carcinoma; 200 mkd × 5 i.p., days 3-7): 31 days
Survival Range (Lewis lung carcinoma; 400 mkd × 5 i.p., days 3-7): 21 to 31 days
% ILS (increase in life span) (Lewis lung carcinoma; 400 mkd × 5 i.p., days 3-7, p < 0.05): 40%
Half Maximal Tumor Volume (median day to reach half maximal tumor size) (Lewis lung carcinoma; 400 mkd × 5 i.p., days 3-7, control 19, p < 0.05): 23 days
Median survival (Lewis lung carcinoma; 400 mkd × 5 i.p., days 3-7): 31 days
effect on lifespan and tumor size (Lewis lung carcinoma; s.c. solid tumors (Lewis lung carcinoma or M5076 sarcoma)): increased their lifespan and significantly decreased tumor size
effect on tumor size (M5076 sarcoma; 400 mg/kg/day i.p.): statistically significant decrease in tumor size
% ILS (increase in life span) (M5076 sarcoma; 50 mkd × 5 i.p.): 0%
Half Maximal Tumor Volume (M5076 sarcoma; 50 mkd × 5 i.p., p < 0.05): 35 days
Median survival (M5076 sarcoma; 50 mkd × 5 i.p.): 36 days
Survival Range (M5076 sarcoma; 50 mkd × 5 i.p., one animal survived for 60 days but bore a large, frank tumor): 34 to 60 days
Survival Range (M5076 sarcoma; 200 mkd × 5 i.p.): 36 to 42 days
% ILS (increase in life span) (M5076 sarcoma; 200 mkd × 5 i.p.): 0%
Half Maximal Tumor Volume (M5076 sarcoma; 200 mkd × 5 i.p.): 35 days
Median survival (M5076 sarcoma; 200 mkd × 5 i.p.): 37 days
Survival Range (M5076 sarcoma; 400 mkd × 5 i.p.): 33 to 47 days
% ILS (increase in life span) (M5076 sarcoma; 400 mkd × 5 i.p.): 14%
Half Maximal Tumor Volume (M5076 sarcoma; 400 mkd × 5 i.p., p < 0.05): 38 days
Median survival (M5076 sarcoma; 400 mkd × 5 i.p.): 42 days
reversal of cellular cytotoxicity by exogenous nucleosides (L1210 leukemia cells; exogenous thymidine, uridine or deoxyuridine, tissue culture): not reversed by exogenous thymidine, uridine or deoxyuridine
effect of added nucleoside on the IC50 (L1210 leukemia cells; thymidine (1×10^-5 M), uridine (1×10^-4 M) or deoxyuridine (1×10^-5 M)): < 10%
